Measurements reported in patent publication US20250282768A1 (Janssen Pharmaceutica NV, priority 2022, published 2025).

Each compound was assayed on p-IKKa levels in L363 (NIK translocated multiple myeloma) cells (assay: Assay 2: Effect of compounds on p-IKKa levels in L363 (NIK translocated multiple myeloma) cells). Details: Homo sapiens, L-363, 6 h, read-out: Assay 2 IC50 (nM), p-IKKa (Ser 176/180) in BAFF stimulated L363 cells with MG132, 6 h; average if tested more than once.
Format: cell-based
How it was run: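 L363 cells incubated overnight ± 250 ng/ml BAFF, then 6 h at 37 °C with compound (0.3% DMSO) ± 10 μM MG132. Lysates assayed for p-IKKa (Ser176/180) by AlphaLISA SureFire. IC50 from sigmoidal fit of % inhibition normalized to BAFF/MG132-stimulated and unstimulated controls.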

First: C[C@H](Nc1nccc(-c2cccc(-c3cc([C@]4(O)CCN(C)C4=O)on3)n2)n1)C(=O)N1CCCC1 [Example 184, (R)-3-Hydroxy-1-methyl-3-(3-(6-(2-(((S)-1-oxo-1-(pyrrolidin-1-yl)propan-2-yl)amino)pyrimidin-4-yl)pyridin-2-yl)isoxazol-5-yl)pyrrolidin-2-one]
Second: CN1CC[C@@](O)(c2cc(-c3cccc(-c4ccnc(N[C@@H]5CCCC[C@@H]5O)n4)n3)no2)C1=O [Example 357, (R)-3-Hydroxy-3-(3-(6-(2-(((1R,2S)-2-hydroxycyclohexyl)amino)pyrimidin-4-yl)pyridin-2-yl)isoxazol-5-yl)-1-methylpyrrolidin-2-one]
The IC50 of the first is lower: 50 to 500 nM for the first, > 500 nM for the second. The first is the more potent here.

First: CN1CC[C@@](O)(c2cc(-c3cccc(-c4ccnc(Nc5cnn(CCF)c5)n4)n3)no2)C1=O [Example 61, (R)-3-(3-(6-(2-((1-(2-Fluoroethyl)-1H-pyrazol-4-yl)amino)pyrimidin-4-yl)pyridin-2-yl)isoxazol-5-yl)-3-hydroxy-1-methylpyrrolidin-2-one]
Second: CN1CC[C@@](O)(c2cc(-c3cccc(-c4ccnc(Nc5cnn(CCN)c5)n4)n3)no2)C1=O [Example 125, (R)-3-(3-(6-(2-((1-(2-Aminoethyl)-1H-pyrazol-4-yl)amino)pyrimidin-4-yl)pyridin-2-yl)isoxazol-5-yl)-3-hydroxy-1-methylpyrrolidin-2-one]
The IC50 of the first is lower: < 50 nM for the first, 50 to 500 nM for the second.

`CN1CC[C@@](O)(c2cn(-c3cccc(-c4ccnc(Nc5cnn6ccccc56)n4)n3)nn2)C1=O` [Example 121, (R)-3-Hydroxy-1-methyl-3-(1-(6-(2-(pyrazolo[1,5-a]pyridin-3-ylamino)pyrimidin-4-yl)pyridin-2-yl)-1H-1,2,3-triazol-4-yl)pyrrolidin-2-one] and `CN1CC[C@@](O)(c2cn(-c3cccc(-c4ccnc(Nc5cnn6c5CCCC6)n4)n3)nn2)C1=O` [Example 251, (R)-3-Hydroxy-1-methyl-3-(1-(6-(2-((4,5,6,7-tetrahydropyrazolo[1,5-a]pyridin-3-yl)amino)pyrimidin-4-yl)pyridin-2-yl)-1H-1,2,3-triazol-4-yl)pyrrolidin-2-one] cannot be ordered by IC50: < 50 nM for the first, < 50 nM for the second.

`CN1CC[C@@](O)(c2cc(-c3cccc(-c4ccnc(N[C@H]5CC[C@@H](O)C5)n4)c3)no2)C1=O` [Example 14, (R)-3-Hydroxy-3-(3-(3-(2-(((1 S,3R)-3-hydroxycyclopentyl)amino)pyrimidin-4-yl)phenyl)isoxazol-5-yl)-1-methylpyrrolidin-2-one] and `CN1CC[C@@](O)(c2cc(-c3cccc(-c4ccnc(Nc5cnn(C)c5)n4)c3)no2)C1=O` [Example 72, (R)-3-Hydroxy-1-methyl-3-(3-(3-(2-((1-methyl-1H-pyrazol-4-yl)amino)pyrimidin-4-yl)phenyl)isoxazol-5-yl)pyrrolidin-2-one] cannot be ordered by IC50: > 500 nM for the first, > 500 nM for the second.

`C[C@@H](O)[C@@H](Nc1nccc(-c2cccc(-c3cc([C@]4(O)CCN(C)C4=O)on3)n2)n1)c1ccccc1` [Example 152, (R)-3-Hydroxy-3-(3-(6-(2-(((1 S,2R)-2-hydroxy-1-phenylpropyl)amino)pyrimidin-4-yl)pyridin-2-yl)isoxazol-5-yl)-1-methylpyrrolidin-2-one] and `C[C@@H](Nc1nccc(-c2cccc(-c3cc([C@]4(O)CCN(C)C4=O)on3)n2)n1)c1ccncc1` (single isomer, unassigned) [Example 154] fall in the same range of IC50: 50 to 500 nM for the first, 50 to 500 nM for the second.

Compared with `COc1nccc(Nc2nccc(-c3cccc(-c4cc([C@]5(O)CCN(C)C5=O)on4)n3)n2)n1` [Example 113, (R)-3-Hydroxy-3-(3-(6-(2-((2-methoxypyrimidin-4-yl)amino)pyrimidin-4-yl)pyridin-2-yl)isoxazol-5-yl)-1-methylpyrrolidin-2-one], `CN1CC[C@@](O)(c2cc(-c3cccc(-c4ccnc(Nc5ncccc5F)n4)n3)no2)C1=O` [Example 331, (R)-3-(3-(6-(2-((3-Fluoropyridin-2-yl)amino)pyrimidin-4-yl)pyridin-2-yl)isoxazol-5-yl)-3-hydroxy-1-methylpyrrolidin-2-one] is higher in IC50: < 50 nM for the first, > 500 nM for the second. The first is the more potent here.

`C[C@H](Nc1nccc(-c2cccc(-n3cc([C@]4(O)CCN(C)C4=O)nn3)n2)n1)c1cnn(C)c1` (single isomer, unassigned) [Example 119] and `C[C@@H](Nc1nccc(-c2cccc(-c3cc([C@]4(O)CCN(C)C4=O)on3)n2)n1)c1cn[nH]c1` (single isomer, unassigned) [Example 148] cannot be ordered by IC50: < 50 nM for the first, < 50 nM for the second.

`CN1CC[C@@](O)(c2cc(-c3cccc(-c4ccnc(NC5(C6CC6)CC5)n4)n3)no2)C1=O` [Example 443, (R)-3-(3-(6-(2-([1,1′-Bi(cyclopropan)]-1-ylamino)pyrimidin-4-yl)pyridin-2-yl)isoxazol-5-yl)-3-hydroxy-1-methylpyrrolidin-2-one] and `CN1CC[C@@](O)(c2cc(-c3cccc(-c4ccnc(NCCF)n4)n3)no2)C1=O` [Example 364, (R)-3-(3-(6-(2-((2-Fluoroethyl)amino)pyrimidin-4-yl)pyridin-2-yl)isoxazol-5-yl)-3-hydroxy-1-methylpyrrolidin-2-one] fall in the same range of IC50: 50 to 500 nM for the first, 50 to 500 nM for the second.

First: CN1CC[C@@](O)(c2cc(-c3cccc(-c4ccnc(Nc5cnn6ccncc56)n4)n3)no2)C1=O [Example 299, (R)-3-Hydroxy-1-methyl-3-(3-(6-(2-(pyrazolo[1,5-a]pyrazin-3-ylamino)pyrimidin-4-yl)pyridin-2-yl)isoxazol-5-yl)pyrrolidin-2-one]
Second: CN1CC[C@@](O)(c2cc(-c3cccc(-c4ccnc(Nc5cnc6ccccn56)n4)n3)no2)C1=O [Example 219, (R)-3-Hydroxy-3-(3-(6-(2-(imidazo[1,2-a]pyridin-3-ylamino)pyrimidin-4-yl)pyridin-2-yl)isoxazol-5-yl)-1-methylpyrrolidin-2-one]
The IC50 of the first is lower: < 50 nM for the first, > 500 nM for the second.

`[2H]c1cc(-c2cccc(-c3cc([C@]4(O)CCN(C)C4=O)no3)n2)nc(Nc2ccn(C)n2)n1` [Example 200, (R)-3-Hydroxy-1-methyl-3-(5-(6-(2-((1-methyl-1H-pyrazol-3-yl)amino)pyrimidin-4-yl-6-d)pyridin-2-yl)isoxazol-3-yl)pyrrolidin-2-one] and `CN1CC[C@@](O)(c2cc(-c3cccc(-c4ccnc(Nc5cc(F)n(C)n5)n4)n3)no2)C1=O` [Example 295, (R)-3-(3-(6-(2-((5-Fluoro-1-methyl-1H-pyrazol-3-yl)amino)pyrimidin-4-yl)pyridin-2-yl)isoxazol-5-yl)-3-hydroxy-1-methylpyrrolidin-2-one] cannot be ordered by IC50: < 50 nM for the first, < 50 nM for the second.

`CN1CC(F)(F)[C@@](O)(c2cc(-c3cccc(-c4ccnc(Nc5cnn(C)c5Cl)n4)n3)no2)C1=O` [Example 409] and `CN1CC[C@@](O)(c2cc(-c3cccc(-c4ccnc(Nc5cn(CCF)cn5)n4)n3)no2)C1=O` [Example 399, (R)-3-(3-(6-(2-((1-(2-Fluoroethyl)-1H-imidazol-4-yl)amino)pyrimidin-4-yl)pyridin-2-yl)isoxazol-5-yl)-3-hydroxy-1-methylpyrrolidin-2-one] cannot be ordered by IC50: < 50 nM for the first, < 50 nM for the second.

`COc1cc(-c2cc([C@]3(O)CCN(C)C3=O)on2)nc(-c2ccnc(Nc3cnn(C)c3)n2)c1` [Example 145, (R)-3-Hydroxy-3-(3-(4-methoxy-6-(2-((1-methyl-1H-pyrazol-4-yl)amino)pyrimidin-4-yl)pyridin-2-yl)isoxazol-5-yl)-1-methylpyrrolidin-2-one] and `COc1cc(-c2cc([C@]3(O)CCN(C)C3=O)on2)nc(-c2ccnc(Nc3ccn(C)n3)n2)c1` [Example 146, (R)-3-Hydroxy-3-(3-(4-methoxy-6-(2-((1-methyl-1H-pyrazol-3-yl)amino)pyrimidin-4-yl)pyridin-2-yl)isoxazol-5-yl)-1-methylpyrrolidin-2-one] cannot be ordered by IC50: < 50 nM for the first, < 50 nM for the second.

First: CN1CC[C@@](O)(c2cc(-c3cccc(-c4ccnc(Nc5cc6n(n5)CCNC6)n4)c3)no2)C1=O [Example 416, (R)-3-Hydroxy-1-methyl-3-(3-(3-(2-((4,5,6,7-tetrahydropyrazolo[1,5-a]pyrazin-2-yl)amino)pyrimidin-4-yl)phenyl)isoxazol-5-yl)pyrrolidin-2-one]
Second: CN1CCn2nc(Nc3nccc(-c4cccc(-c5cc([C@]6(O)CCN(C)C6=O)on5)n4)n3)cc2C1=O [Example 467, (R)-2-((4-(6-(5-(3-Hydroxy-1-methyl-2-oxopyrrolidin-3-yl)isoxazol-3-yl)pyridin-2-yl)pyrimidin-2-yl)amino)-5-methyl-6,7-dihydropyrazolo[1,5-a]pyrazin-4(5H)-one]
The IC50 of the first is higher: > 500 nM for the first, 50 to 500 nM for the second.

`CO[C@H](C)CNc1nccc(-c2cccc(-c3cc([C@]4(O)CCN(C)C4=O)on3)n2)n1` [Example 356, (R)-3-Hydroxy-3-(3-(6-(2-(((R)-2-methoxypropyl)amino)pyrimidin-4-yl)pyridin-2-yl)isoxazol-5-yl)-1-methylpyrrolidin-2-one] and `CN1CC[C@@](O)(c2cc(-c3cccc(-c4ccnc(N[C@@H]5COC[C@@H]5F)n4)n3)no2)C1=O` [Example 339, (R)-3-(3-(6-(2-(((cis)-4-Fluorotetrahydrofuran-3-yl)amino)pyrimidin-4-yl)pyridin-2-yl)isoxazol-5-yl)-3-hydroxy-1-methylpyrrolidin-2-one] fall in the same range of IC50: 50 to 500 nM for the first, 50 to 500 nM for the second.

`CNC(=O)c1cc(Nc2nccc(-c3cccc(-c4cc([C@]5(O)CCN(C)C5=O)on4)n3)n2)nn1C(C)C` [Example 464, (R)-3-((4-(6-(5-(3-Hydroxy-1-methyl-2-oxopyrrolidin-3-yl)isoxazol-3-yl)pyridin-2-yl)pyrimidin-2-yl)amino)-1-isopropyl-N-methyl-1H-pyrazole-5-carboxamide] and `Cc1nn(C2CCOCC2)cc1Nc1nccc(-c2cccc(-c3cc([C@]4(O)CCN(C)C4=O)on3)n2)n1` [Example 233, (R)-3-Hydroxy-1-methyl-3-(3-(6-(2-((3-methyl-1-(tetrahydro-2H-pyran-4-yl)-1H-pyrazol-4-yl)amino)pyrimidin-4-yl)pyridin-2-yl)isoxazol-5-yl)pyrrolidin-2-one] cannot be ordered by IC50: < 50 nM for the first, < 50 nM for the second.
